Here are results for 3 compounds from US10221165B2, “Flavone based EGFR inhibitors and process for preparation thereof” (Council of Scientific and Industrial Research, priority 2015, dated 2019).

Broadly, the viability is a read-out of living cells in per cent, often relative to untreated cells. A word on the logP: it is a log measure of how a compound divides between an organic and an aqueous phase. A low value points to lower lipophilicity. By melting point is commonly meant the temperature of the solid-liquid transition.

The subject of one data set is A549 Cell line (Lung Cancer Cell line). Nature of the data set: Cell proliferation assay (MTT), in-vitro anticancer activity against A549 cell line. Type of data set: cell-based. The note with it: Homo sapiens, A549, 0.01 μM, 72 h. The procedure: (§1) Each cell line was plated in 96-well microtiter plates (10,000 cells per well), and serial dilutions of indicated compounds were added. At the end of the incubation period (72 h at 37° C.), cell viability was determined by a tetrazolium dye, MTT (3-(4,5-dimethylthiazol-2-yl)-2,5-diphenyl tetrazolium bromide) (Promega, USA). The formazan crystals were dissolved in DMSO, and the absorbance at 600 nm was recorded using an ELISA plate reader. IC50 values were calculated using nonlinear regression and defined as the concentration needed for a 50% reduction in absorbance of treated versus untreated control cells.
In-Vitro Anticancer Activity Against A549 Cell Line (Lung Cancer Cell Line) (Adenocarcinomic Human Alveolar Basal Epithelial Cells)
As to `COc1ccccc1Nc1nc(N)c(-c2cc(=O)c3ccc(O)cc3o2)s1` [Compound S1-M7, 2-(2-(2-methoxyphenylamino)-4-aminothiazol-5-yl)-7-hydroxy-4H-chromen-4-one], the viability at 0.01 µM worked out at 96.1%.
Same read-out and setting: the figure for `Nc1nc(Nc2ccccc2)sc1-c1cc(=O)c2ccc(O)cc2o1` [Compound S1-M8, 2-(4-amino-2-(phenylamino)thiazol-5-yl)-7-hydroxy-4H-chromen-4-one] is 93.3%; for `Cc1ccc(Nc2nc(N)c(-c3cc(=O)c4ccccc4o3)s2)cc1` [Compound S1-M9, 2-(2-(p-tolylamino)-4-aminothiazol-5-yl)-4H-chromen-4-one] it is 100%.

Still in this data set, the particulars now being: Homo sapiens, A549, 0.1 μM, 72 h.
In the case of `COc1ccccc1Nc1nc(N)c(-c2cc(=O)c3ccc(O)cc3o2)s1` [Compound S1-M7, 2-(2-(2-methoxyphenylamino)-4-aminothiazol-5-yl)-7-hydroxy-4H-chromen-4-one], the viability at 0.1 µM was 94.9%.
Same read-out and setting: the result for `Nc1nc(Nc2ccccc2)sc1-c1cc(=O)c2ccc(O)cc2o1` [Compound S1-M8, 2-(4-amino-2-(phenylamino)thiazol-5-yl)-7-hydroxy-4H-chromen-4-one] reads 87.1%.
The same measure, in the same setting: the figure for `Cc1ccc(Nc2nc(N)c(-c3cc(=O)c4ccccc4o3)s2)cc1` [Compound S1-M9, 2-(2-(p-tolylamino)-4-aminothiazol-5-yl)-4H-chromen-4-one] is 91.8%.

Staying with this data set, now noted: Homo sapiens, A549, 2.5 μM, 72 h.
The compound `COc1ccccc1Nc1nc(N)c(-c2cc(=O)c3ccc(O)cc3o2)s1` [Compound S1-M7, 2-(2-(2-methoxyphenylamino)-4-aminothiazol-5-yl)-7-hydroxy-4H-chromen-4-one] had a viability at 2.5 µM of 84.8%.
Still for that read-out and setting: the figure for `Nc1nc(Nc2ccccc2)sc1-c1cc(=O)c2ccc(O)cc2o1` [Compound S1-M8, 2-(4-amino-2-(phenylamino)thiazol-5-yl)-7-hydroxy-4H-chromen-4-one] is 75%.
Same read-out and setting: the figure for `Cc1ccc(Nc2nc(N)c(-c3cc(=O)c4ccccc4o3)s2)cc1` [Compound S1-M9, 2-(2-(p-tolylamino)-4-aminothiazol-5-yl)-4H-chromen-4-one] is 87.3%.

Still in this data set, the particulars now being: Homo sapiens, A549, 5 μM, 72 h.
For the compound `COc1ccccc1Nc1nc(N)c(-c2cc(=O)c3ccc(O)cc3o2)s1` [Compound S1-M7, 2-(2-(2-methoxyphenylamino)-4-aminothiazol-5-yl)-7-hydroxy-4H-chromen-4-one], the viability at 5 µM came to 74.8%.
Still for that read-out and setting: the figure for `Nc1nc(Nc2ccccc2)sc1-c1cc(=O)c2ccc(O)cc2o1` [Compound S1-M8, 2-(4-amino-2-(phenylamino)thiazol-5-yl)-7-hydroxy-4H-chromen-4-one] is 64%; for `Cc1ccc(Nc2nc(N)c(-c3cc(=O)c4ccccc4o3)s2)cc1` [Compound S1-M9, 2-(2-(p-tolylamino)-4-aminothiazol-5-yl)-4H-chromen-4-one] it is 77.3%.

The same data set, now with this note: Homo sapiens, A549, 10 μM, 72 h.
In the case of `COc1ccccc1Nc1nc(N)c(-c2cc(=O)c3ccc(O)cc3o2)s1` [Compound S1-M7, 2-(2-(2-methoxyphenylamino)-4-aminothiazol-5-yl)-7-hydroxy-4H-chromen-4-one], the viability at 10 µM stood at 66.8%.
Compound `Nc1nc(Nc2ccccc2)sc1-c1cc(=O)c2ccc(O)cc2o1` [Compound S1-M8, 2-(4-amino-2-(phenylamino)thiazol-5-yl)-7-hydroxy-4H-chromen-4-one] yielded a viability at 10 µM of 54%.
Still for that read-out and setting: the figure for `Cc1ccc(Nc2nc(N)c(-c3cc(=O)c4ccccc4o3)s2)cc1` [Compound S1-M9, 2-(2-(p-tolylamino)-4-aminothiazol-5-yl)-4H-chromen-4-one] is 67.3%.

Tested on in the next data set: not listed separately
Nature of the data set: Log P (Table 4). Type of data set: physicochemical. The note with it: method not stated.
For the compound `COc1ccccc1Nc1nc(N)c(-c2cc(=O)c3ccc(O)cc3o2)s1` [Compound S1-M7, 2-(2-(2-methoxyphenylamino)-4-aminothiazol-5-yl)-7-hydroxy-4H-chromen-4-one], the logP is 2.11.
`Nc1nc(Nc2ccccc2)sc1-c1cc(=O)c2ccc(O)cc2o1` [Compound S1-M8, 2-(4-amino-2-(phenylamino)thiazol-5-yl)-7-hydroxy-4H-chromen-4-one]: the logP came to 3.32.
As for `Cc1ccc(Nc2nc(N)c(-c3cc(=O)c4ccccc4o3)s2)cc1` [Compound S1-M9, 2-(2-(p-tolylamino)-4-aminothiazol-5-yl)-4H-chromen-4-one], the logP is 1.9.

Tested on in the next data set: not given
Assay: not given
Settings: not given
As for `COc1ccccc1Nc1nc(N)c(-c2cc(=O)c3ccc(O)cc3o2)s1` [Compound S1-M7, 2-(2-(2-methoxyphenylamino)-4-aminothiazol-5-yl)-7-hydroxy-4H-chromen-4-one], the melting point is 210 to 212 °C.
Same read-out and setting: the result for `Nc1nc(Nc2ccccc2)sc1-c1cc(=O)c2ccc(O)cc2o1` [Compound S1-M8, 2-(4-amino-2-(phenylamino)thiazol-5-yl)-7-hydroxy-4H-chromen-4-one] reads 218 to 220 °C; that for `Cc1ccc(Nc2nc(N)c(-c3cc(=O)c4ccccc4o3)s2)cc1` [Compound S1-M9, 2-(2-(p-tolylamino)-4-aminothiazol-5-yl)-4H-chromen-4-one], 200 to 202 °C.

The subject of a further data set is U87MG Cell line (glioblastoma cell line). Nature of the data set: Cell proliferation assay (MTT), in-vitro anticancer activity against U87MG cell line. Type of data set: cell-based. Particulars: Homo sapiens, U-87 MG, 0.01 μM, 72 h. The procedure: as §1
In-Vitro Anticancer Activity Against U87MG Cell Line (Glioblastoma Cell Line)
As to `COc1ccccc1Nc1nc(N)c(-c2cc(=O)c3ccc(O)cc3o2)s1` [Compound S1-M7, 2-(2-(2-methoxyphenylamino)-4-aminothiazol-5-yl)-7-hydroxy-4H-chromen-4-one], the viability at 0.01 µM came to 85.1%.
Same read-out and setting: the result for `Nc1nc(Nc2ccccc2)sc1-c1cc(=O)c2ccc(O)cc2o1` [Compound S1-M8, 2-(4-amino-2-(phenylamino)thiazol-5-yl)-7-hydroxy-4H-chromen-4-one] reads 88.3%.
Same read-out and setting: the result for `Cc1ccc(Nc2nc(N)c(-c3cc(=O)c4ccccc4o3)s2)cc1` [Compound S1-M9, 2-(2-(p-tolylamino)-4-aminothiazol-5-yl)-4H-chromen-4-one] reads 87%.

The data set is the same for the next values; noted with them: Homo sapiens, U-87 MG, 0.1 μM, 72 h.
With `COc1ccccc1Nc1nc(N)c(-c2cc(=O)c3ccc(O)cc3o2)s1` [Compound S1-M7, 2-(2-(2-methoxyphenylamino)-4-aminothiazol-5-yl)-7-hydroxy-4H-chromen-4-one], the viability at 0.1 µM turned out to be 75.9%.
Same read-out and setting: the figure for `Nc1nc(Nc2ccccc2)sc1-c1cc(=O)c2ccc(O)cc2o1` [Compound S1-M8, 2-(4-amino-2-(phenylamino)thiazol-5-yl)-7-hydroxy-4H-chromen-4-one] is 76.1%; for `Cc1ccc(Nc2nc(N)c(-c3cc(=O)c4ccccc4o3)s2)cc1` [Compound S1-M9, 2-(2-(p-tolylamino)-4-aminothiazol-5-yl)-4H-chromen-4-one] it is 78.8%.

Staying with this data set, now noted: Homo sapiens, U-87 MG, 2.5 μM, 72 h.
For `COc1ccccc1Nc1nc(N)c(-c2cc(=O)c3ccc(O)cc3o2)s1` [Compound S1-M7, 2-(2-(2-methoxyphenylamino)-4-aminothiazol-5-yl)-7-hydroxy-4H-chromen-4-one], the viability at 2.5 µM was determined as 65.8%.
With `Nc1nc(Nc2ccccc2)sc1-c1cc(=O)c2ccc(O)cc2o1` [Compound S1-M8, 2-(4-amino-2-(phenylamino)thiazol-5-yl)-7-hydroxy-4H-chromen-4-one], the viability at 2.5 µM stood at 68%.
As for `Cc1ccc(Nc2nc(N)c(-c3cc(=O)c4ccccc4o3)s2)cc1` [Compound S1-M9, 2-(2-(p-tolylamino)-4-aminothiazol-5-yl)-4H-chromen-4-one], the viability at 2.5 µM was found to be 70.3%.

Still in this data set, the particulars now being: Homo sapiens, U-87 MG, 5 μM, 72 h.
On to `COc1ccccc1Nc1nc(N)c(-c2cc(=O)c3ccc(O)cc3o2)s1` [Compound S1-M7, 2-(2-(2-methoxyphenylamino)-4-aminothiazol-5-yl)-7-hydroxy-4H-chromen-4-one], for which the viability at 5 µM is 57.8%.
The same measure, in the same setting: the figure for `Nc1nc(Nc2ccccc2)sc1-c1cc(=O)c2ccc(O)cc2o1` [Compound S1-M8, 2-(4-amino-2-(phenylamino)thiazol-5-yl)-7-hydroxy-4H-chromen-4-one] is 59%; for `Cc1ccc(Nc2nc(N)c(-c3cc(=O)c4ccccc4o3)s2)cc1` [Compound S1-M9, 2-(2-(p-tolylamino)-4-aminothiazol-5-yl)-4H-chromen-4-one] it is 62.3%.

Staying with this data set, now noted: Homo sapiens, U-87 MG, 10 μM, 72 h.
On to `COc1ccccc1Nc1nc(N)c(-c2cc(=O)c3ccc(O)cc3o2)s1` [Compound S1-M7, 2-(2-(2-methoxyphenylamino)-4-aminothiazol-5-yl)-7-hydroxy-4H-chromen-4-one], for which the viability at 10 µM is 45.8%.
The same measure, in the same setting: the result for `Nc1nc(Nc2ccccc2)sc1-c1cc(=O)c2ccc(O)cc2o1` [Compound S1-M8, 2-(4-amino-2-(phenylamino)thiazol-5-yl)-7-hydroxy-4H-chromen-4-one] reads 51.4%.
Take `Cc1ccc(Nc2nc(N)c(-c3cc(=O)c4ccccc4o3)s2)cc1` [Compound S1-M9, 2-(2-(p-tolylamino)-4-aminothiazol-5-yl)-4H-chromen-4-one]: the viability at 10 µM came out at 55.6%.
